Assay results from US12478689B2, “Anti-CD19 antibody drug conjugates” (AbbVie Biotherapeutics Inc., priority 2022, dated 2025).

Columns and labels:
[1] = test system: Farage, SU-DHL-6, OCI-LY19 cells; conditions: GRM 100 nM, ADC-1 1 μM; all 3 cell lines
RS4;11 (ALL) = conditions: read-out: EC50 in vitro cytotoxicity (% cell viability), 5-day compound treatment, FIG. 1
RS4;11 tumors = test: ALL subcutaneous xenograft in CB17/SCID mice; format: in vivo; conditions: FIG. 11; fucosylated mAb and ADC-1 used; prednisolone [QD×5]×3; ADC-1 single low dose
Text: Food and water were available ad libitum.
Intraperitoneal route of administration was used.
Tumor volume was estimated one to two times weekly.

SMILES	Apoptosis (BIM, cleaved caspase-3, cleaved PARP) [1]	EC50 (RS4;11 (ALL)) [nM]	Anti-tumor activity (RS4;11 tumors)
C[C@]12C=CC(=O)C=C1[C@@H](F)C[C@H]1[C@@H]3C[C@H]4O[C@@H](c5ccc(Cc6cccc(N)c6)cc5)O[C@@]4(C(=O)CO)[C@@]3(C)C[C@H](O)[C@@]12F [Compound of Formula IV, (2S,6aS,6bR,7S,8aS,8bS,10R,11aR,12aS,12bS)-10-(4-(3-Aminobenzyl)phenyl)-2,6b-difluoro-7-hydroxy-8b-(2-hydroxyacetyl)-6a,8a-dimethyl-1,2,6a,6b,7,8,8a,8b,11a,12,12a,12b-dodecahydro-4H-naphtho[2′,1′:4,5]indeno[1,2-d][1,3]dioxol-4-one]	induced apoptosis	–	–
C[C@@H]1C[C@H]2[C@@H]3CCC4=CC(=O)C=C[C@]4(C)[C@@]3(F)[C@@H](O)C[C@]2(C)[C@@]1(O)C(=O)CO [dexamethasone]	–	3.28	–
C[C@]12C=CC(=O)C=C1CC[C@@H]1[C@@H]2[C@@H](O)C[C@@]2(C)[C@H]1CC[C@]2(O)C(=O)CO [prednisolone, reference compound]	–	82.9	modest anti-tumor activity
